Read-outs that look alike come from different tables or passages of the source.
Key:
[1] = test system: catalepsy
[2] = in vivo; conditions: sc
[3] = test system: amphetamine induced stereotypy; experiment: amphetamine stereotype test (antagonism of amphetamine induced stereotypy); type: in vivo, rats; conditions: for ED50: Rattus norvegicus, sc
[4] = in vivo; conditions: mouse, po
Experimental: (§1) a. […] On the anti-catepressan test [based on Costal et al, Europ. […] The LD50 of the compound of Example 3 is about 500 mg/kg per oral in the mouse.

[5] = anti-catepressan test; type: in vivo; conditions: per oral
Experimental: as §1

[6] = S.C., Table 1, read-out: ED50, antagonism of amphetamine induced stereotypy

| Structure (SMILES) | Ratio catalepsy / anti-sterotypy ([1]; ratio of ED50 values S.C., Table 1) | ED50 [2] [mg/kg] | ED50 [3, 6] [mg/kg] | LD50 [4] [mg/kg] | propensity to induce catalepsy relative to anti-stereotypy activity (in words) ([1]; in vivo) | Ratio catalepsy / anti-sterotypy ([1]; in vivo, sc) | ED50 [5] [mg/kg] | ED50 ([3]; rats, administered sub-cutaneously, read-out: ED50, amphetamine stereotype test) [mg/kg] | anti-psychotic or neuroleptic activity (in words) ([3]; as judged by amphetamine induced stereotypy test) |
| --- | --- | --- | --- | --- | --- | --- | --- | --- | --- |
| CN(C)CCCN1c2ccccc2Sc2ccc(Cl)cc21 [Chlorpromazine, reference compound] | 3 | 3 | 1 |  |  |  |  |  |  |
| COc1cc(N)c(Cl)cc1NC(=O)C1CCN(Cc2ccccc2)CC1 [Example 3, 5-Amino-4-chloro-2-(1^1-benzylpiperidine-4-carboxamido)-anisole] |  | 6 | 0.2 | ~500 | weaker propensity to induce catalepsy | 30 | 5 | 0.2 | have anti-psychotic or neuroleptic activity |
| O=C(CCCN1CCC(O)(c2ccc(Cl)cc2)CC1)c1ccc(F)cc1 [Haloperidol, reference compound] |  | 0.3 | 0.05 |  |  |  |  |  |  |
